Several values for one entry are separate records, joined by “and”; a condition that tells them apart may be missing. Identical values can stand only once. Toxic doses and inconclusive results are not listed.
Test system: P388 leukemia ip, CD2F1 mice, survival T/C
Experiment: NCI In Vivo Anticancer Drug Screen. Data for tumor model P388 Leukemia (intraperitoneal) in CD2F1 (CDF1) mice
Details: endpoint: median survival time, higher = longer survival
Summary of the method: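 Mice carrying the transplanted tumor received test compound or vehicle. Survival was recorded in each group, and the value is the treated-group measurement divided by that of the vehicle-treated control group.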

[1] = dose: 25.0 mg/kg/injection, schedule: Q01DX009 (ip), vehicle: saline with Tween-80
[2] = dose: 50.0 mg/kg/injection, schedule: Q01DX009 (ip), vehicle: saline with Tween-80
[3] = dose: 100.0 mg/kg/injection, schedule: Q01DX009 (ip), vehicle: saline with Tween-80
[4] = dose: 60.0 mg/kg/injection, schedule: Q01DX005 (ip), vehicle: saline with Tween-80
[5] = dose: 120.0 mg/kg/injection, schedule: Q01DX005 (ip), vehicle: saline with Tween-80
[6] = dose: 240.0 mg/kg/injection, schedule: Q01DX005 (ip), vehicle: saline with Tween-80
[7] = dose: 100.0 mg/kg/injection, schedule: Q01DX001 (ip), vehicle: saline
[8] = dose: 200.0 mg/kg/injection, schedule: Q01DX001 (ip), vehicle: saline
[9] = dose: 400.0 mg/kg/injection, schedule: Q01DX001 (ip), vehicle: saline
[10] = dose: 100.0 mg/kg/injection, schedule: Q01DX001 (ip), vehicle: saline with Tween-80
[11] = dose: 200.0 mg/kg/injection, schedule: Q01DX001 (ip), vehicle: saline with Tween-80
[12] = dose: 50.0 mg/kg/injection, schedule: Q01DX005 (ip), vehicle: saline with Tween-80
[13] = dose: 100.0 mg/kg/injection, schedule: Q01DX005 (ip), vehicle: saline with Tween-80
[14] = dose: 200.0 mg/kg/injection, schedule: Q01DX005 (ip), vehicle: saline with Tween-80

With `COC(=O)C1C(C)(C)N=NC1(C)C` the T/C (dose: 12.5 mg/kg/injection, schedule: Q01DX009 (ip), vehicle: other) was 113 % of control, the T/C (dose: 25.0 mg/kg/injection, schedule: Q01DX009 (ip), vehicle: other) was 115 % of control and the T/C (dose: 50.0 mg/kg/injection, schedule: Q01DX009 (ip), vehicle: other) was 105 % of control. For the same molecule, the T/C (dose: 100.0 mg/kg/injection, schedule: Q01DX009 (ip), vehicle: other) was 103 % of control and the T/C (dose: 200.0 mg/kg/injection, schedule: Q01DX009 (ip), vehicle: other) was 108 % of control.
In the case of `C[n+]1ccc(/C=C/c2ccccc2)cc1`, the T/C [1] is reported as 95 % of control, the T/C [2] is reported as 90 % of control and the T/C [3] is reported as 95 % of control. The T/C (dose: 200.0 mg/kg/injection, schedule: Q01DX009 (ip), vehicle: saline with Tween-80) was 97 % of control.
With `C=C(Cl)CNc1ccccc1C(=O)OC` the T/C (dose: 25.0 mg/kg/injection, schedule: Q04DX003 (ip), vehicle: Klucel (hydroxypropylcellulose) (HPC)) was 100 % of control, the T/C (dose: 50.0 mg/kg/injection, schedule: Q04DX003 (ip), vehicle: Klucel (hydroxypropylcellulose) (HPC)) was 100 % of control and 103 % of control and the T/C (dose: 100.0 mg/kg/injection, schedule: Q04DX003 (ip), vehicle: Klucel (hydroxypropylcellulose) (HPC)) was 100 % of control and 110 % of control. For the same molecule, the T/C (dose: 200.0 mg/kg/injection, schedule: Q04DX003 (ip), vehicle: Klucel (hydroxypropylcellulose) (HPC)) was 103 % of control and 106 % of control and the T/C (dose: 400.0 mg/kg/injection, schedule: Q04DX003 (ip), vehicle: Klucel (hydroxypropylcellulose) (HPC)) was 100 % of control and 108 % of control.
With `C/C=C(\CC[Se]c1ccccc1)C(=O)OC` the T/C (dose: 50.0 mg/kg/injection, schedule: Q01DX009 (ip), vehicle: distilled water + Tween-80 + alcohol) was 108 % of control, the T/C (dose: 100.0 mg/kg/injection, schedule: Q01DX009 (ip), vehicle: distilled water + Tween-80 + alcohol) was 98 % of control and the T/C (dose: 200.0 mg/kg/injection, schedule: Q01DX009 (ip), vehicle: distilled water + Tween-80 + alcohol) was 106 % of control.
For `Cc1cn(Cc2ccc(Cl)cc2Cl)c(C)n1`, the T/C (dose: 15.0 mg/kg/injection, schedule: Q01DX005 (ip), vehicle: saline with Tween-80) was 100 % of control, the T/C (dose: 30.0 mg/kg/injection, schedule: Q01DX005 (ip), vehicle: saline with Tween-80) was 107 % of control and the T/C [4] was 100 % of control and 108 % of control.
For `CCCOc1ccc(C(C)c2cc3c(cc2OCC)OCO3)cc1` (centres undefined), the T/C (dose: 50.0 mg/kg/injection, schedule: Q01DX005 (ip), vehicle: Klucel + Tween-80) was 104 % of control, the T/C (dose: 100.0 mg/kg/injection, schedule: Q01DX005 (ip), vehicle: Klucel + Tween-80) was 98 % of control and the T/C (dose: 200.0 mg/kg/injection, schedule: Q01DX005 (ip), vehicle: Klucel + Tween-80) was 97 % of control.
For `Nc1nc(N)c2c(Cl)c(CNc3ccc(C(=O)NC(CC(=O)O)CC(=O)O)cc3)ccc2n1`, the T/C (dose: 1.5 mg/kg/injection, schedule: Q01DX005 (ip), vehicle: saline with Tween-80) was 155 % of control, the T/C (dose: 3.0 mg/kg/injection, schedule: Q01DX005 (ip), vehicle: saline with Tween-80) was 174 % of control and the T/C (dose: 6.0 mg/kg/injection, schedule: Q01DX005 (ip), vehicle: saline with Tween-80) was 202 % of control. The T/C (dose: 6.25 mg/kg/injection, schedule: Q01DX005 (ip), vehicle: saline with Tween-80) was 235 % of control and the T/C (dose: 12.0 mg/kg/injection, schedule: Q01DX005 (ip), vehicle: saline with Tween-80) was 275 % of control.
In the case of `C=C[C@H]1C2=CCOC(=O)C2=CO[C@@H]1OC1OC(CO)C(O)C(O)C1O` (some centres undefined), the T/C (dose: 0.75 mg/kg/injection, schedule: Q01DX005 (ip), vehicle: water) is reported as 95 % of control, the T/C (dose: 1.5 mg/kg/injection, schedule: Q01DX005 (ip), vehicle: water) is reported as 95 % of control and the T/C (dose: 3.0 mg/kg/injection, schedule: Q01DX005 (ip), vehicle: water) is reported as 95 % of control. For the same molecule, the T/C (dose: 6.0 mg/kg/injection, schedule: Q01DX005 (ip), vehicle: water) was 99 % of control.
With `CNC(=O)OCc1c(COC(=O)NC)c2n(c1C)-c1ccc(OC)cc1CCC2` the T/C (dose: 7.5 mg/kg/injection, schedule: Q01DX005 (ip), vehicle: Klucel (hydroxypropylcellulose) (HPC)) was 119 % of control and the T/C (dose: 15.0 mg/kg/injection, schedule: Q01DX005 (ip), vehicle: Klucel (hydroxypropylcellulose) (HPC)) was 122 % of control.
`CCc1nc(N)nc(N)c1-c1ccc(Cl)c(S(=O)(=O)O)c1` was tested, and the T/C [4] was 103 % of control, the T/C [5] was 98 % of control and the T/C [6] was 98 % of control.
`CC(=O)OC1CCC2C3CCC4=C/C(=N/NC(=S)Nc5ccccc5)CCC4(C)C3CCC12C` (centres undefined) was tested, and the T/C [7] was 101 % of control, the T/C [8] was 101 % of control and the T/C [9] was 100 % of control.
`CCOC(=O)c1nnn(-c2cncc(-n3nnc(C(=O)OCC)c3C(=O)OCC)n2)c1C(=O)OCC` was tested, and the T/C (dose: 60.0 mg/kg/injection, schedule: Q01DX005 (ip), vehicle: Klucel (hydroxypropylcellulose) (HPC)) was 98 % of control, the T/C (dose: 120.0 mg/kg/injection, schedule: Q01DX005 (ip), vehicle: Klucel (hydroxypropylcellulose) (HPC)) was 102 % of control and the T/C (dose: 240.0 mg/kg/injection, schedule: Q01DX005 (ip), vehicle: Klucel (hydroxypropylcellulose) (HPC)) was 103 % of control.
`CC(=O)N(CCCCCCN(C(C)=O)C(C)=O)C(C)=O` was tested, and the T/C (dose: 50.0 mg/kg/injection, schedule: Q01DX005 (ip), vehicle: Klucel (hydroxypropylcellulose) (HPC)) was 96 % of control, the T/C (dose: 100.0 mg/kg/injection, schedule: Q01DX005 (ip), vehicle: Klucel (hydroxypropylcellulose) (HPC)) was 105 % of control and the T/C (dose: 200.0 mg/kg/injection, schedule: Q01DX005 (ip), vehicle: Klucel (hydroxypropylcellulose) (HPC)) was 92 % of control. The T/C (dose: 400.0 mg/kg/injection, schedule: Q01DX005 (ip), vehicle: Klucel (hydroxypropylcellulose) (HPC)) was 94 % of control.
With `[CH3][Ge]([CH3])[CH3].[CH3][Ge]([CH3])[CH3]` the T/C (dose: 50.0 mg/kg/injection, schedule: Q01DX009 (ip), vehicle: saline) was 95 % of control, the T/C (dose: 100.0 mg/kg/injection, schedule: Q01DX009 (ip), vehicle: saline) was 91 % of control and the T/C (dose: 200.0 mg/kg/injection, schedule: Q01DX009 (ip), vehicle: saline) was 97 % of control.
`O=C1CCC2(c3ccccc3)CCCN=C2N1` (centres undefined) was tested, and the T/C [10] was 104 % of control and the T/C [11] was 99 % of control.
With `CCOC1=NC(C)C(C)N1` (centres undefined) the T/C (dose: 25.0 mg/kg/injection, schedule: Q01DX001 (ip), vehicle: saline) was 101 % of control, the T/C (dose: 50.0 mg/kg/injection, schedule: Q01DX001 (ip), vehicle: saline) was 101 % of control and the T/C [7] was 108 % of control and 97 % of control.
For `NS(=O)(=O)c1ccc(N=c2c3ccccc3n(-c3ccccc3)c3ccccc23)cc1`, the T/C [12] was 102 % of control, the T/C [13] was 93 % of control and the T/C [14] was 90 % of control.
In the case of `CS(C)=NC(=Nc1ccc(Cl)cc1)c1ccccc1`, the T/C [1] is reported as 95 % of control and the T/C [2] is reported as 106 % of control.
`CCCCN1CCNC1=S` was tested, and the T/C [12] was 100 % of control, the T/C [13] was 102 % of control and the T/C [14] was 102 % of control.
For `ON(CCc1ccncc1)CCc1ccncc1`, the T/C [12] was 100 % of control, the T/C [13] was 98 % of control and the T/C [14] was 100 % of control.
In the case of `Cl.O=C([O-])C1C[SH+]C(C(O)C(O)C(O)C(O)CO)N1.O=C([O-])C1C[SH+]C(C(O)C(O)C(O)C(O)CO)N1.[Pd+2]` (centres undefined), the T/C [7] is reported as 103 % of control, the T/C [8] is reported as 104 % of control and the T/C [9] is reported as 95 % of control.
In the case of `O=c1cc(-c2ccccc2)[nH]c2[nH]n(-c3ccccc3)c(=O)c12`, the T/C [4] is reported as 110 % of control, the T/C [5] is reported as 104 % of control and the T/C [6] is reported as 94 % of control.
For `CCCCCC(=O)C(C)(c1nc2nnc(N)n2[nH]c1=O)c1nc2nnc(N)n2[nH]c1=O`, the T/C [12] was 93 % of control, the T/C [13] was 93 % of control and the T/C [14] was 94 % of control.
With `CCCCOCN(COCCCC)c1ccccc1` the T/C [10] was 104 % of control, the T/C [11] was 113 % of control and the T/C (dose: 400.0 mg/kg/injection, schedule: Q01DX001 (ip), vehicle: saline with Tween-80) was 109 % of control.
`CO[C@H](C(=O)[C@@H](O)[C@@H](C)O)[C@@H]1Cc2cc3cc(O)c(C)c(O)c3c(O)c2C(=O)[C@H]1O` was tested, and the T/C (dose: 8.0 mg/kg/injection, schedule: Q01DX009 (ip), vehicle: water) was 107 % of control, the T/C (dose: 16.0 mg/kg/injection, schedule: Q01DX009 (ip), vehicle: water) was 114 % of control and the T/C (dose: 32.0 mg/kg/injection, schedule: Q01DX009 (ip), vehicle: water) was 100 % of control.
For `CC(CCc1ccccc1)NC(C)C(O)c1ccc(O)cc1` (centres undefined), the T/C [1] was 100 % of control, the T/C [2] was 100 % of control and the T/C [3] was 90 % of control.
